# Results: patent publication US12208088B2 (Genentech, Inc., priority 2018, dated 2025)
# Molecular target: HPK1 (Homo sapiens (Human), UniProt Q92918)
# Test: HPK1 Lantha binding assay ("Lanth")
# Details: binding assays; Morrison Ki fit
# How it was run: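 TR-FRET binding competition using 2 nM HPK1, 2 nM Eu-anti-GST antibody and 15 nM Tracer222 at 23 °C. Compound was incubated 1 h with enzyme and antibody, then 1 h after tracer addition, with an 11-point 5-fold dilution series. Ki obtained from a Morrison fit that corrects for tracer concentration and Kd.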
# Chain of HPK1 (Q92918 1-346 limits assumed): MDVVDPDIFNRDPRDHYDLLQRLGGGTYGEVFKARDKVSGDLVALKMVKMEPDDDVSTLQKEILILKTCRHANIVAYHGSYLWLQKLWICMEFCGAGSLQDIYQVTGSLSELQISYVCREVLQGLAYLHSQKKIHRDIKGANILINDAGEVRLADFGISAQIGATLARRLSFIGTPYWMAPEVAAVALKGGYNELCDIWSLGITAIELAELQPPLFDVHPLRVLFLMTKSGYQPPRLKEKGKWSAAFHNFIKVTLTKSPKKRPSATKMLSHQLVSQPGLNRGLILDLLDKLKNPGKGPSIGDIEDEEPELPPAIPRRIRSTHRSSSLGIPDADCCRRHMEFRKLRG
row,SMILES,Ki [nM]
1,"CN(C)C(=O)c1ccc(-c2cnc3c(c2Cl)C2(CC=CC2)CN3)cc1F [Compound 205, 4-(4′-Chloro-1′,2′-dihydrospiro[cyclopentane-1,3′-pyrrolo[2,3-b]pyridin]-3-en-5′-yl)-2-fluoro-N,N-dimethylbenzamide]",267
2,"CN(C)C(=O)c1ccc(-c2cnc3c(c2Cl)C2(CC=CC2)CN3)c(F)c1 [Compound 206, 4-(4′-Chloro-1′,2′-dihydrospiro[cyclopentane-1,3′-pyrrolo[2,3-b]pyridin]-3-en-5′-yl)-3-fluoro-N,N-dimethylbenzamide]",436
3,"O=S(=O)(Nc1ccc(-c2cnc3c(c2Cl)C2(CC=CC2)CN3)cc1)C1CC1 [Compound 207, N-(4-(4′-Chloro-1′,2′-dihydrospiro[cyclopentane-1,3′-pyrrolo[2,3-b]pyridin]-3-en-5′-yl)phenyl)cyclopropanesulfonamide]",87
4,"O=S1(=O)CCCN1c1ccc(-c2cnc3c(c2Cl)C2(CC=CC2)CN3)cc1 [Compound 208, 2-(4-(4′-Chloro-1′,2′-dihydrospiro[cyclopentane-1,3′-pyrrolo[2,3-b]pyridin]-3-en-5′-yl)phenyl)isothiazolidine 1,1-dioxide]",201
5,"O=S(=O)(Nc1cccc(-c2cnc3c(c2Cl)C2(CC=CC2)CN3)c1)C1CC1 [Compound 209, N-(3-(4′-Chloro-1′,2′-dihydrospiro[cyclopentane-1,3′-pyrrolo[2,3-b]pyridin]-3-en-5′-yl)phenyl)cyclopropanesulfonamide]",199
6,"CS(=O)(=O)Nc1cccc(-c2cnc3c(c2Cl)C2(CC=CC2)CN3)c1 [Compound 210, N-(3-(4′-Chloro-1′,2′-dihydrospiro[cyclopentane-1,3′-pyrrolo[2,3-b]pyridin]-3-en-5′-yl)phenyl)methanesulfonamide]",70.8
7,"CC(=O)NCc1cccc(-c2cnc3c(c2Cl)C2(CC=CC2)CN3)c1 [Compound 211, N-(3-(4′-Chloro-1′,2′-dihydrospiro[cyclopentane-1,3′-pyrrolo[2,3-b]pyridin]-3-en-5′-yl)benzyl)acetamide]",145
8,"CC(=O)NCc1ccc(-c2cnc3c(c2Cl)C2(CC=CC2)CN3)cc1 [Compound 212, N-(4-(4′-Chloro-1′,2′-dihydrospiro[cyclopentane-1,3′-pyrrolo[2,3-b]pyridin]-3-en-5′-yl)benzyl)acetamide]",112
9,"CC(=O)NCCc1ccc(-c2cnc3c(c2Cl)C2(CC=CC2)CN3)cc1 [Compound 213, N-(4-(4′-chloro-1′,2′-dihydrospiro[cyclopentane-1,3′-pyrrolo[2,3-b]pyridin]-3-en-5′-yl)phenethyl)acetamide]",286
10,"O=C(NCCO)c1ccc(-c2cnc3c(c2Cl)C2(CC=CC2)CN3)cc1 [Compound 214, 4-(4′-Chloro-1′,2′-dihydrospiro[cyclopentane-1,3′-pyrrolo[2,3-6]pyridin]-3-en-5′-yl)-N-(2-hydroxyethyl)benzamide]",340
11,"Clc1c(-c2ccc(-n3cccn3)cc2)cnc2c1C1(CC=CC1)CN2 [Compound 215, 5′-(4-(1H-Pyrazol-1-yl)phenyl)-4′-chloro-1′,2′-dihydrospiro[cyclopentane-1,3′-pyrrolo[2,3-b]pyridin]-3-ene]",676
12,"OCc1ccc(-c2cnc3c(c2Cl)C2(CC=CC2)CN3)c(F)c1 [Compound 216, (4-(4′-Chloro-1′,2′-dihydrospiro[cyclopentane-1,3′-pyrrolo[2,3-b]pyridin]-3-en-5′-yl)-3-fluorophenyl)methanol]",330
13,"CN(C)S(=O)(=O)Nc1cccc(-c2cnc3c(c2Cl)C2(CC=CC2)CN3)c1 [Compound 218, N-(3-(4′-Chloro-1′,2′-dihydrospiro[cyclopentane-1,3′-pyrrolo[2,3-b]pyridin]-3-en-5′-yl)phenyl)-N′,N′-dimethylsulfamide]",230
14,"OCc1cccc(-c2cnc3c(c2Cl)C2(CC=CC2)CN3)c1F [Compound 219, (3-(4′-Chloro-1′,2′-dihydrospiro[cyclopentane-1,3′-pyrrolo[2,3-b]pyridin]-3-en-5′-yl)-2-fluorophenyl)methanol]",478
